The values below are quoted from earlier work in paper PMC9516332 (Frontiers in Oncology, 2022).

For series [1], the target named is panel of 255 wild-type kinases (Homo sapiens, UniProt Q9P289). As to conditions: MST4, 1 µmol/L single concentration, cited from earlier work.
Series [2] addresses panel of 255 wild-type kinases (Homo sapiens, UniProt O75582). As to conditions: MSK1, 1 µmol/L single concentration, cited from earlier work.
The target of series [3] is panel of 255 wild-type kinases (Homo sapiens, UniProt P29317). Particulars: kinase EPHA2, 1 µmol/L single concentration, cited from earlier work.
Series [4] deals with T1, panel of 255 wild-type kinases (Homo sapiens, UniProt Q9UQB9).
T1 sequence (Q9UQB9 1-309): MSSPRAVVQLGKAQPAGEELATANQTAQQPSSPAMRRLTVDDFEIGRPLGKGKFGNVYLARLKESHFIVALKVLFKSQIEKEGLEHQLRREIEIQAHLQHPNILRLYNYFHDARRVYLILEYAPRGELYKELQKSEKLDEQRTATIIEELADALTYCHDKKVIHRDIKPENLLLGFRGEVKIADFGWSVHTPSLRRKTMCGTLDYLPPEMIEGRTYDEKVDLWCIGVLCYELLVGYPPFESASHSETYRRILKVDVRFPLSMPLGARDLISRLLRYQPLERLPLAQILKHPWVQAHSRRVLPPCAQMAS
Particulars: AurC kinase assay, 1 µmol/L single concentration, cited from earlier work.

Series [5] has as its target panel of 255 wild-type kinases (Homo sapiens, UniProt P29376). As to conditions: kinase LTK, 1 µmol/L single concentration, cited from earlier work.
Series [6] concerns the target panel of 255 wild-type kinases (Homo sapiens, UniProt P54764). Particulars: kinase EPHA4, 1 µmol/L single concentration, cited from earlier work.
Series [7] concerns the target T2, panel of 255 wild-type kinases (Homo sapiens, UniProt Q96PF2).
T2 sequence (Q96PF2 1-358): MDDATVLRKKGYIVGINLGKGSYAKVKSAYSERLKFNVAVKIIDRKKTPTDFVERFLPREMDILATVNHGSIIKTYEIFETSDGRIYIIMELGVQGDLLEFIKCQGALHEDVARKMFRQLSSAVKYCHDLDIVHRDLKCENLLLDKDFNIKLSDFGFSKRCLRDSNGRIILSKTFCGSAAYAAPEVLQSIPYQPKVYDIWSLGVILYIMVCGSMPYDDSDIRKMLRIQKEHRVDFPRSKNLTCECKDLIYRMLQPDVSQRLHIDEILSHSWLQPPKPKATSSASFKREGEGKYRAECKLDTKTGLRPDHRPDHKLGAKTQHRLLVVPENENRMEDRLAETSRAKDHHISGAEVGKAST
Particulars: kinase TSSK2, 1 µmol/L single concentration, cited from earlier work.

The target in series [8] is panel of 255 wild-type kinases (Homo sapiens, UniProt Q14680). As to conditions: MELK, 1 µmol/L single concentration, cited from earlier work.
The target in series [9] is panel of 255 wild-type kinases (Homo sapiens, UniProt Q13164). Particulars: kinase Erk5, 1 µmol/L single concentration, cited from earlier work.
Series [10] concerns the target panel of 255 wild-type kinases (Homo sapiens, UniProt Q8N568). Particulars: kinase DCAMKL2, 1 µmol/L single concentration, cited from earlier work.
The target of series [11] is panel of 255 wild-type kinases (Homo sapiens, UniProt P45984). Particulars: kinase JNK2, 1 µmol/L single concentration, cited from earlier work.
In series [12] the target is panel of 255 wild-type kinases (Homo sapiens, UniProt P11362). As to conditions: kinase FGFR1, 1 µmol/L single concentration, cited from earlier work.
Series [13] concerns the target T3, panel of 255 wild-type kinases (Homo sapiens, UniProt Q9H093).
T3 sequence (Q9H093 1-628): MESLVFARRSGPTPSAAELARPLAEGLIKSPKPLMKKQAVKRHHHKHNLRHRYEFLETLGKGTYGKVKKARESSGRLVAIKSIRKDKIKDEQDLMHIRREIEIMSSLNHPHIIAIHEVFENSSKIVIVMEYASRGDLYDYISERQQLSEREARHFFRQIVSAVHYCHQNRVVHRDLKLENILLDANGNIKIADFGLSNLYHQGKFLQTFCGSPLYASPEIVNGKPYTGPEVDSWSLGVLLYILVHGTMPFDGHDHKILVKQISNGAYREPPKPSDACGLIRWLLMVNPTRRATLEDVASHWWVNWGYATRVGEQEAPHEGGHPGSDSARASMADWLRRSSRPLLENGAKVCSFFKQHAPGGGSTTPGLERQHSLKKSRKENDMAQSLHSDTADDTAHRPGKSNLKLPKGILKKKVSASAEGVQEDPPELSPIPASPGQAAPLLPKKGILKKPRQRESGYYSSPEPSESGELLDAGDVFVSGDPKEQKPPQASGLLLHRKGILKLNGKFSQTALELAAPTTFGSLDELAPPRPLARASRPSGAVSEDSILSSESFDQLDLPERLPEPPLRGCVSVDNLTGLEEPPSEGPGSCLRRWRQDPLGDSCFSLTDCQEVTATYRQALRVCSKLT
Particulars: NuaK2, 1 µmol/L single concentration, cited from earlier work.

Series [14] addresses panel of 255 wild-type kinases (Homo sapiens, UniProt P42685). As to conditions: kinase FRK, 1 µmol/L single concentration, cited from earlier work.
Setting [15] is: ref DOI: 10.1371/journal.pone.0092146.
The mark [16] stands for this setting: ref DOI: 10.1158/1535-7163.MCT-18-0877.

Like-named read-outs stand apart in the source and are kept apart here.

As to `CCCS(=O)(=O)Nc1ccc(F)c(C(=O)c2c[nH]c3ncc(-c4ccc(Cl)cc4)cc23)c1F` [vemurafenib], the “%-inhibition, MST4” value in [1] (setting [15]) is reported as -4.62%. Also, the “%-inhibition, MSK1” value in series [2] (setting [15]) is 0.256%. Besides, the “%-inhibition at 1 µmol/L, EPHA2” value in series [3] (setting [15]) was 0.715%. The “%-inhibition AurC” value in [4] (setting [15]) was 13%. Further, in series [5] (setting [15]), the “%-inhibition at 1 µmol/L, LTK” value is 2.6%. Moreover, in series [6] (setting [15]), the “%-inhibition at 1 µmol/L, EPHA4” value is recorded as -2%. Further, the “%-inhibition at 1 µmol/L, TSSK2” value in series [7] (setting [15]) was -11%. Besides, in [8] (setting [15]), the “%-inhibition, MELK” value is given as 4%. Besides, in series [9] (setting [15]), the “%-inhibition at 1 µmol/L, Erk5” value is on record as 0.709%. Also, the “%-inhibition at 1 µmol/L, DCAMKL2” value in series [10] (setting [15]) is reported as -3.52%. The “%-inhibition at 1 µmol/L, JNK2” value in series [11] (setting [15]) was -0.0632%. Further, the “%-inhibition at 1 µmol/L, FGFR1” value in [12] (setting [15]) is given as 21%. Besides, the “%-inhibition, NuaK2” value in [13] (setting [15]) was 4.36%. Also, the “%-inhibition at 1 µmol/L, FRK” value in [14] (setting [15]) is listed as 62%.
Regarding `O=C(c1ccc(F)c(F)c1Nc1ccc(I)cc1F)N1CC(O)([C@@H]2CCCCN2)C1` [cobimetinib], the “%-inhibition, MST4” value in series [1] (setting [16]) was -0.477%. In addition, in [2] (setting [16]), the “%-inhibition, MSK1” value is given as -3%. The “%-inhibition at 1 µmol/L, EPHA2” value in [3] (setting [16]) is on record as 2.79%. Further, in [4] (setting [16]), the “%-inhibition AurC” value is -2.68%. For the same molecule, in [5] (setting [16]), the “%-inhibition at 1 µmol/L, LTK” value is on record as 2.85%. Further, the “%-inhibition at 1 µmol/L, EPHA4” value in series [6] (setting [16]) was 3%. In addition, the “%-inhibition at 1 µmol/L, TSSK2” value in [7] (setting [16]) was -2.33%. The “%-inhibition, MELK” value in [8] (setting [16]) is listed as 2.53%. In series [9] (setting [16]), the “%-inhibition at 1 µmol/L, Erk5” value is listed as 1.71%. Besides, the “%-inhibition at 1 µmol/L, DCAMKL2” value in [10] (setting [16]) is -9%. Besides, the “%-inhibition at 1 µmol/L, JNK2” value in series [11] (setting [16]) is -2.51%. For the same molecule, the “%-inhibition at 1 µmol/L, FGFR1” value in [12] (setting [16]) is -1.33%. In [13] (setting [16]), the “%-inhibition, NuaK2” value is -10%. Also, the “%-inhibition at 1 µmol/L, FRK” value in series [14] (setting [16]) is 0.866%.
Consider `CC(C)(C)c1nc(-c2cccc(NS(=O)(=O)c3c(F)cccc3F)c2F)c(-c2ccnc(N)n2)s1` [dabrafenib], for which the “%-inhibition, MST4” value in series [1] (setting [15]) is on record as -7%. For the same molecule, the “%-inhibition, MSK1” value in series [2] (setting [15]) is 0.0759%. Besides, in [3] (setting [15]), the “%-inhibition at 1 µmol/L, EPHA2” value is recorded as 7%. In addition, in [4] (setting [15]), the “%-inhibition AurC” value is listed as 23%. In addition, the “%-inhibition at 1 µmol/L, LTK” value in series [5] (setting [15]) was 2.67%. The “%-inhibition at 1 µmol/L, EPHA4” value in [6] (setting [15]) was 12%. The “%-inhibition at 1 µmol/L, TSSK2” value in series [7] (setting [15]) is recorded as -1.73%. Besides, the “%-inhibition, MELK” value in series [8] (setting [15]) is recorded as 82%. Moreover, the “%-inhibition at 1 µmol/L, Erk5” value in series [9] (setting [15]) is 0.144%. Also, in series [10] (setting [15]), the “%-inhibition at 1 µmol/L, DCAMKL2” value is recorded as 19%. Also, the “%-inhibition at 1 µmol/L, JNK2” value in [11] (setting [15]) was -0.947%. For the same molecule, the “%-inhibition at 1 µmol/L, FGFR1” value in [12] (setting [15]) is 10%. Moreover, the “%-inhibition, NuaK2” value in [13] (setting [15]) was 4.53%. Moreover, the “%-inhibition at 1 µmol/L, FRK” value in series [14] (setting [15]) was 81%.
Take `CO[C@@H]1[C@H](N(C)C(=O)c2ccccc2)C[C@H]2O[C@]1(C)n1c3ccccc3c3c4c(c5c6ccccc6n2c5c31)C(=O)NC4` [midostaurin]: the “%-inhibition, MST4” value in [1] (setting [16]) is 52%. Further, in [2] (setting [16]), the “%-inhibition, MSK1” value is 88%. Further, the “%-inhibition at 1 µmol/L, EPHA2” value in series [3] (setting [16]) is 3.36%. Further, in [4] (setting [16]), the “%-inhibition AurC” value was 100%. For the same molecule, the “%-inhibition at 1 µmol/L, LTK” value in [5] (setting [16]) is reported as 90%. In addition, the “%-inhibition at 1 µmol/L, EPHA4” value in series [6] (setting [16]) is 2.15%. Moreover, the “%-inhibition at 1 µmol/L, TSSK2” value in series [7] (setting [16]) is 24%. For the same molecule, the “%-inhibition, MELK” value in [8] (setting [16]) was 95%. The “%-inhibition at 1 µmol/L, Erk5” value in series [9] (setting [16]) is -1.27%. Also, the “%-inhibition at 1 µmol/L, DCAMKL2” value in series [10] (setting [16]) is listed as 8%. Besides, the “%-inhibition at 1 µmol/L, JNK2” value in series [11] (setting [16]) was 8%. The “%-inhibition at 1 µmol/L, FGFR1” value in series [12] (setting [16]) is reported as 93%. In addition, the “%-inhibition, NuaK2” value in series [13] (setting [16]) is 99%. Moreover, the “%-inhibition at 1 µmol/L, FRK” value in series [14] (setting [16]) is on record as 70%.
In the case of `CC#CC(=O)N1CCC[C@H]1c1nc(-c2ccc(C(=O)Nc3ccccn3)cc2)c2c(N)nccn12` [acalabrutinib], the “%-inhibition, MST4” value in series [1] (setting [16]) is listed as -6.42%. Besides, the “%-inhibition, MSK1” value in series [2] (setting [16]) is recorded as -8%. Besides, the “%-inhibition at 1 µmol/L, EPHA2” value in [3] (setting [16]) is recorded as -3.6%. Moreover, the “%-inhibition AurC” value in [4] (setting [16]) is 7%. Besides, in [5] (setting [16]), the “%-inhibition at 1 µmol/L, LTK” value was 10%. The “%-inhibition at 1 µmol/L, EPHA4” value in series [6] (setting [16]) is listed as -3%. Also, the “%-inhibition at 1 µmol/L, TSSK2” value in series [7] (setting [16]) was -3%. The “%-inhibition, MELK” value in [8] (setting [16]) is recorded as -0.54%. In addition, the “%-inhibition at 1 µmol/L, Erk5” value in series [9] (setting [16]) is on record as -2.12%. Besides, the “%-inhibition at 1 µmol/L, DCAMKL2” value in [10] (setting [16]) was 4.63%. Also, the “%-inhibition at 1 µmol/L, JNK2” value in series [11] (setting [16]) is -1.85%. Besides, the “%-inhibition at 1 µmol/L, FGFR1” value in [12] (setting [16]) is on record as -2.28%. For the same molecule, the “%-inhibition, NuaK2” value in [13] (setting [16]) is listed as 3%. In addition, the “%-inhibition at 1 µmol/L, FRK” value in series [14] (setting [16]) is reported as 47%.
